According to patent publication US7956072B2, “Agent for repairing corneal sensitivity containing amide compound” (Senju Pharmaceutical Co., Ltd., priority 2004, dated 2011):
“Also recorded” adds a separate entry of the source.

Assays:
[1] = test system: rabbit corneal hyposensitivity model; test: Improving effect on rabbit corneal hyposensitivity using microkeratome (corneal flap model, Cochet-Bonnet corneal sensitivity meter); format: in vivo; settings: 0.01% instillation; for recovery of corneal sensitivity relative to control group: 50 μL 4 times a day for 1 week or 2 weeks after corneal flap preparation, measured weekly 1 to 8 weeks postsurgery, hydrochloride
Description: Japanese white rabbits (body weight 2.5-3.0 kg) purchased from Japan SLC were used. The animals were housed separately in cages in a room set to room temperature 23±3° C., humidity 55±10%, 12 hr light cycle (light on 8 am, light off on 8 pm) from arrival to the end of the test. A limited amount of a solid feed (Labo R-stock, Nosan Corporation, 100 g for one day) was given to the animals and a free access to tap water was allowed.
As the test substance, compound 1 was used. Compound 1 was dissolved in the following base solution to 0.01% and administered by instillation. The base solution was administered to the control group by instillation.
Prior to the start of the test, the anterior segment of eye of the animal was visually observed and cornea stained marks by fluorescein was observed, and the rabbits showing no abnormality in them were selected. Using Cochet-Bonnet corneal sensitivity meter (manufactured by LUNEAU), the initial value of corneal sensitivity was measured.
Intramuscular injection (0.9 mL/kg) of a Celactal (2% xylazine):Ketalar (5% ketamine)=0.5:1 mixture was given to the animals to perform systemic anesthesia, and the eyeball was sufficiently exposed. Using microkeratome (MK2000, Nidek) attached a rabbit eye adaptor inside a suction ring, a corneal flap (diameter 8.5 mm) was prepared with a 130 μm thick blade (Arbelaez M C. et al., J. Refract Surg., 2002 May-Jun. 18 (3 Suppl): S357-60). The corneal flap was certainly put back into position under a microscope, and the animal was woken up from the anesthesia while observing the animal to prevent displacement of the flap. […]
The corneal sensitivity was measured using a Cochet-Bonnet corneal sensitivity meter once every week from one to eight weeks after the surgery. […]
For statistical analysis, a parametric Dunnett multiple comparisons test (one sided) (SAS preclinical package; Version 5.0, SAS Institute Japan) was used and a risk of less than 5% was evaluated as significant.

[2] = test system: cultured rabbit trigeminal nerve cells; test: Promoting effect on neuritogenesis in cultured rabbit trigeminal nerve cell; format: cell-based; settings: compound 1 final concentration 1 μM, 48 hr of culture
From the text: Japanese White rabbits (2-3 days old) purchased from KITAYAMA LABES Co., Ltd. were used.
The trigeminal nerve cell was isolated according to the report of Chan et al. (Chan, Kuan Y. and Haschke, Richard H., Exp. Eye Res., 41: 687-699, 1985). To be specific, under ether anesthesia, after cardiac perfusion with saline, the trigeminal ganglia was removed, dispersed using a nerve dispersion solution (SUMITOMO BAKELITE Co., Ltd.) to give a cell suspension. […]
After 48 hr of culture, the cells were fixed with 4% paraformaldehyde at room temperature for 2 hr, and nerve cell body and neurite were fluorescence stained using an anti-neurofilament 200 antibody (Sigma) that specifically recognizes neurofilaments which are intermediate filaments specific to a nerve cell and a fluorescent secondary antibody reactive therewith.
The stained cells were imported as images from a fluorescence microscope into a computer and the cell body diameter and neurite length of the imported cell images were measured using an image analysis software (Image-Pro Plus ver. 4.0, Planetron. Inc.). The cells of 3 wells were measured for each of the compound 1 addition group and the control group. The cells having a neurite with a length of not less than twice the diameter of a cell body were taken as neuritogenetic cells, and the percentage (%) of the neuritogenetic cells in the total cells measured was calculated.

SMILES: C[C@@H](N)c1ccc(C(=O)Nc2ccnc3[nH]ccc23)cc1.Cl [compound 1, (R)-(+)-N-(1H-pyrrolo[2,3-b]pyridin-4-yl)-4-(1-aminoethyl)benzamide 1 hydrochloride]
- corneal sensitivity compared to control group (statistical analysis) ([1]; 1-week administration group, at 5 week postsurgery, Dunnett test, p<0.05): significantly high
- recovery of corneal sensitivity relative to control group [1]: has an effect of promoting the recovery of corneal hyposensitivity
- recovery of corneal sensitivity relative to control group ([1]; listed as test substance): better recovery of corneal sensitivity than in the control group
- neuritogenesis of cultured trigeminal nerve cells (fluorescence microscope observation) ([2]; anti-neurofilament 200 staining, hydrochloride): many cells having a long-extended neurite were observed; also recorded: promotes neuritogenesis
- percentage (%) of the neuritogenetic cells in the total cells measured ([2]; N=3, mean, control group 24%, p<0.001 vs control): 54.6%
